Experiments:
Test in all cases: relative viability (nuclei count vs DMSO), 5 days (fraction); higher = more cells survive
AZD8055 + Vorinostat = compound: COc1ccc(-c2ccc3c(N4CCOC[C@@H]4C)nc(N4CCOC[C@@H]4C)nc3n2)cc1CO [AZD8055] + O=C(CCCCCCC(=O)Nc1ccccc1)NO [Vorinostat] (partner 1 µM)
Outline: (§1)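 Relative viability divides the nuclei count in treated wells by that in vehicle wells. Lung cancer cell lines were seeded in 1536-well plates, dosed by pin tool the next day, and fixed and stained after 5 days in one step with final 0.05% Triton X-100, 1% formaldehyde and 1 ug/ml Hoechst. Dosing was a single drug or a fixed anchor-drug dose plus five library-drug doses (not always all listed) in √10 steps, and values are medians of duplicate plates imaged at 4×.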

AZD8055 + Navitoclax = compound: COc1ccc(-c2ccc3c(N4CCOC[C@@H]4C)nc(N4CCOC[C@@H]4C)nc3n2)cc1CO [AZD8055] + CC1(C)CCC(c2ccc(Cl)cc2)=C(CN2CCN(c3ccc(C(=O)NS(=O)(=O)c4ccc(N[C@H](CCN5CCOCC5)CSc5ccccc5)c(S(=O)(=O)C(F)(F)F)c4)cc3)CC2)C1 [Navitoclax] (partner 0.5 µM)
Outline: as §1

AZD8055 + Pemetrexed = compound: COc1ccc(-c2ccc3c(N4CCOC[C@@H]4C)nc(N4CCOC[C@@H]4C)nc3n2)cc1CO [AZD8055] + Nc1nc2[nH]cc(CCc3ccc(C(=O)N[C@@H](CCC(=O)O)C(=O)O)cc3)c2c(=O)[nH]1 [Pemetrexed] (partner 0.2 µM)
Outline: as §1

AZD8055 + Linsitinib = compound: COc1ccc(-c2ccc3c(N4CCOC[C@@H]4C)nc(N4CCOC[C@@H]4C)nc3n2)cc1CO [AZD8055] + C[C@]1(O)C[C@@H](c2nc(-c3ccc4ccc(-c5ccccc5)nc4c3)c3c(N)nccn32)C1 [Linsitinib] (partner 1 µM)
Outline: as §1

Cell Line | relative viability (AZD8055 + Vorinostat; first compound 0.01 µM) | relative viability (AZD8055 + Vorinostat; first compound 0.03162 µM) | relative viability (AZD8055 + Vorinostat; first compound 0.1 µM) | relative viability (AZD8055 + Vorinostat; first compound 0.3162 µM) | relative viability (AZD8055 + Vorinostat; first compound 1 µM) | relative viability (AZD8055 + Navitoclax; first compound 0.01 µM) | relative viability (AZD8055 + Navitoclax; first compound 0.03162 µM) | relative viability (AZD8055 + Navitoclax; first compound 0.1 µM) | relative viability (AZD8055 + Navitoclax; first compound 0.3162 µM) | relative viability (AZD8055 + Navitoclax; first compound 1 µM) | relative viability (AZD8055 + Pemetrexed; first compound 0.01 µM) | relative viability (AZD8055 + Pemetrexed; first compound 0.03162 µM) | relative viability (AZD8055 + Pemetrexed; first compound 0.1 µM) | relative viability (AZD8055 + Pemetrexed; first compound 0.3162 µM) | relative viability (AZD8055 + Pemetrexed; first compound 1 µM) | relative viability (AZD8055 + Linsitinib; first compound 0.01 µM) | relative viability (AZD8055 + Linsitinib; first compound 0.03162 µM) | relative viability (AZD8055 + Linsitinib; first compound 0.1 µM) | relative viability (AZD8055 + Linsitinib; first compound 0.3162 µM) | relative viability (AZD8055 + Linsitinib; first compound 1 µM)
NCI-H3122 | 0.809 | 0.999 | 0.877 | 0.442 | 0.338 | 1.13 | 1.05 | 0.687 | 0.435 | 0.348 | 0.229 | 0.228 | 0.231 | 0.227 | 0.225 | 0.995 | 0.823 | 0.547 | 0.384 | 0.299
PC-3 [JPC-3] | 0.849 | 0.902 | 0.631 | 0.534 | 0.495 | 0.83 | 0.847 | 0.775 | 0.575 | 0.421 | 1.17 | 1.09 | 0.877 | 0.622 | 0.454 | 0.992 | 0.972 | 0.882 | 0.673 | 0.461
PC-14 | 0.78 | 0.606 | 0.586 | 0.201 | 0.125 | 1.15 | 1.16 | 1.02 | 0.405 | 0.351 | 0.153 | 0.214 | 0.178 | 0.212 | 0.162 | 1.03 | 0.944 | 0.669 | 0.526 | 0.211
RERF-LC-KJ | 0.819 | 0.665 | 0.575 | 0.446 | 0.384 | 0.925 | 0.838 | 0.586 | 0.428 | 0.333 | 0.51 | 0.499 | 0.428 | 0.396 | 0.373 | 0.86 | 0.739 | 0.597 | 0.44 | 0.352
SK-LU-1 | 0.745 | 0.701 | 0.605 | 0.393 | 0.292 | 1.16 | 0.788 | 1.23 | 0.526 | 0.332 | 1.09 | 0.874 | 0.69 | 0.444 | 0.371 | 0.941 | 0.798 | 0.877 | 0.491 | 0.321
SK-MES-1 | 1.06 | 0.958 | 0.962 | 0.427 | 0.314 | 1.05 | 1.25 | 0.818 | 0.404 | 0.342 | 0.947 | 0.892 | 0.833 | 0.408 | 0.326 | 1.06 | 0.932 | 0.743 | 0.447 | 0.313
SW 1573 | 0.791 | 0.452 | 0.773 | 0.21 | 0.199 | 0.869 | 0.855 | 0.646 | 0.304 | 0.21 | 0.938 | 0.728 | 0.653 | 0.285 | 0.18 | 0.725 | 0.584 | 0.484 | 0.267 | 0.153
UMC-11 | 0.453 | 0.282 | 0.258 | 0.233 | 0.21 | 0.295 | 0.277 | 0.248 | 0.173 | 0.134 | 0.76 | 0.629 | 0.525 | 0.302 | 0.264 | 0.995 | 0.884 | 0.539 | 0.251 | 0.266
